Assays:
Assay in all cases: apparent dissociation constant (pKDapp, Kinobeads competition, Cheng-Prusoff corrected) (-log10 M); higher = tighter binding
ARAF = ARAF (UniProt P10398); conditions: affinity matrix / lysate: Kinobeads, mixed HEK293/K-562/placenta lysate
BCR = BCR (UniProt P11274); conditions: affinity matrix / lysate: Kinobeads, mixed HEK293/K-562/placenta lysate
BMP2K = BMP2K (UniProt Q9NSY1); conditions: affinity matrix / lysate: Kinobeads, mixed HEK293/K-562/placenta lysate
CAMK2B = CAMK2B (UniProt Q13554); conditions: affinity matrix / lysate: Kinobeads, mixed HEK293/K-562/placenta lysate
CDC42BPG = CDC42BPG (UniProt Q6DT37); conditions: affinity matrix / lysate: Kinobeads, mixed HEK293/K-562/placenta lysate
CDK2 = CDK2 (UniProt P24941); conditions: affinity matrix / lysate: Kinobeads, mixed HEK293/K-562/placenta lysate
EGFR = EGFR (UniProt P00533); conditions: affinity matrix / lysate: Kinobeads, mixed HEK293/K-562/placenta lysate
FLT4 = FLT4 (UniProt P35916); conditions: affinity matrix / lysate: Kinobeads, mixed HEK293/K-562/placenta lysate
IGF1R = IGF1R (UniProt P08069); conditions: affinity matrix / lysate: Kinobeads, mixed HEK293/K-562/placenta lysate
KIAA0999 = KIAA0999 (UniProt Q9Y2K2); conditions: affinity matrix / lysate: Kinobeads, mixed HEK293/K-562/placenta lysate
LIMK1 = LIMK1 (UniProt P53667); conditions: affinity matrix / lysate: Kinobeads, mixed HEK293/K-562/placenta lysate
LRRK2 = LRRK2 (UniProt Q5S007); conditions: affinity matrix / lysate: Kinobeads, mixed HEK293/K-562/placenta lysate
MAP2K1 = MAP2K1 (UniProt Q02750); conditions: affinity matrix / lysate: Kinobeads, mixed HEK293/K-562/placenta lysate
MAP3K4 = MAP3K4 (UniProt Q9Y6R4); conditions: affinity matrix / lysate: Kinobeads, mixed HEK293/K-562/placenta lysate
Sequence of MAP3K4 (Q9Y6R4 whole entry): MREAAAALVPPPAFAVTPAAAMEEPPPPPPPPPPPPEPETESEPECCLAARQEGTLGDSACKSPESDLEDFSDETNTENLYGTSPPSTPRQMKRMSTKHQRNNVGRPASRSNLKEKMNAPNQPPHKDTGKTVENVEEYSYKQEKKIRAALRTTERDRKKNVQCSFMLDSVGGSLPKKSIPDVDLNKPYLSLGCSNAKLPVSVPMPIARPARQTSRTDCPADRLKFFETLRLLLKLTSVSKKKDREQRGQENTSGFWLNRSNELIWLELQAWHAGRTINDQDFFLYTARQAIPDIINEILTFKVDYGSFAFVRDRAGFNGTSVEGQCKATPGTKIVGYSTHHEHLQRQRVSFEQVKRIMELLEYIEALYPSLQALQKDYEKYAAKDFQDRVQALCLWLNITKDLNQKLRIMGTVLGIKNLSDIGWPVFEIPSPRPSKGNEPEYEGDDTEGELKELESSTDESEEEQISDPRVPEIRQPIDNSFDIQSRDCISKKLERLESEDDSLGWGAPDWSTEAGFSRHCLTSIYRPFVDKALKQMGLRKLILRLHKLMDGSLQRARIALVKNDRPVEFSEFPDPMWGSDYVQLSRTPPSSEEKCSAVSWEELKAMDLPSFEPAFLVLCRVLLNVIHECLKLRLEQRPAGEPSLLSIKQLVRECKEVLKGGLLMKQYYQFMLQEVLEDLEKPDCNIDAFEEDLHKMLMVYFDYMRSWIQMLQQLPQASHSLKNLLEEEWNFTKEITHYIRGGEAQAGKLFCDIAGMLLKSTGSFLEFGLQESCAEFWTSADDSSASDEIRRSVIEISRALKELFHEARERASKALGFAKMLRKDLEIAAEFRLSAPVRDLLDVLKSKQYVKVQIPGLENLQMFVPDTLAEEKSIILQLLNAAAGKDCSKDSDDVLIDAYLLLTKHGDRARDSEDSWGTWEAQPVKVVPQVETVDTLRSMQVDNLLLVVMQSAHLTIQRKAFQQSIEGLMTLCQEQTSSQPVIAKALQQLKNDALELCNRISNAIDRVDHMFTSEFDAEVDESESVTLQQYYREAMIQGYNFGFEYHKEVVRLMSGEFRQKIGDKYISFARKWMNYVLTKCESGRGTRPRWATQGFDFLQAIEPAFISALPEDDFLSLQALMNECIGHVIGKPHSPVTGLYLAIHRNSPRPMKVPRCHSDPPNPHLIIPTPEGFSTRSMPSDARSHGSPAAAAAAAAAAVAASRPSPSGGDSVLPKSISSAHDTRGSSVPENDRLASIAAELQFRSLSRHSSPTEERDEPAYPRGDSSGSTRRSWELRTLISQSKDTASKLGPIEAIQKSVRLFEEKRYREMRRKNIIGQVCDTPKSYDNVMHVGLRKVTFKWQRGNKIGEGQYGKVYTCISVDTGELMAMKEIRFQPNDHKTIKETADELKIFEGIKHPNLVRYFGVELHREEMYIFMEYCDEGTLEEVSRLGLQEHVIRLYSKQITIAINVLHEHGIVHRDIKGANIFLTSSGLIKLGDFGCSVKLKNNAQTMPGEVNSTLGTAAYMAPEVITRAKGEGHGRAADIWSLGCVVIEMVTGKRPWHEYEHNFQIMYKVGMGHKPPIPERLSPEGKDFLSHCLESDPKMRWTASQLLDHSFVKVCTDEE

MINK1 = MINK1 (UniProt Q8N4C8); conditions: affinity matrix / lysate: Kinobeads, mixed HEK293/K-562/placenta lysate
MKNK2 = MKNK2 (UniProt Q9HBH9); conditions: affinity matrix / lysate: Kinobeads, mixed HEK293/K-562/placenta lysate
Sequence of MKNK2 (Q9HBH9 whole entry, looked up): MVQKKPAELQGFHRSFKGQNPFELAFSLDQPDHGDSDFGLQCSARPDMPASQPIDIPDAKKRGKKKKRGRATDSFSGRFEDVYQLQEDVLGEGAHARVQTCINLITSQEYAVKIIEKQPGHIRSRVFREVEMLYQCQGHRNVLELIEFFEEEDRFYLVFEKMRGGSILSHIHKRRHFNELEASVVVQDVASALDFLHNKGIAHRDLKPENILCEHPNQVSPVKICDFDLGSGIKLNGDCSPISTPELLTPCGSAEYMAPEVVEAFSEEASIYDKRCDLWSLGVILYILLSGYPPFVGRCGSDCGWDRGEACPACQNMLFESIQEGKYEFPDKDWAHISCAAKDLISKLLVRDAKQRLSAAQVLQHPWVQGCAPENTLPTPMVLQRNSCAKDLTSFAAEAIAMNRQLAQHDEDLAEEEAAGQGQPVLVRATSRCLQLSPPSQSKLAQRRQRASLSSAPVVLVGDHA

NEK2 = NEK2 (UniProt P51955); conditions: affinity matrix / lysate: Kinobeads, mixed HEK293/K-562/placenta lysate
NEK3 = NEK3 (UniProt P51956); conditions: affinity matrix / lysate: Kinobeads, mixed HEK293/K-562/placenta lysate
NLK = NLK (UniProt Q9UBE8); conditions: affinity matrix / lysate: Kinobeads, mixed HEK293/K-562/placenta lysate
PFTK1 = PFTK1 (UniProt O94921); conditions: affinity matrix / lysate: Kinobeads, mixed HEK293/K-562/placenta lysate
PHKG2 = PHKG2 (UniProt P15735); conditions: affinity matrix / lysate: Kinobeads, mixed HEK293/K-562/placenta lysate
PIP4K2B = PIP4K2B (UniProt P78356); conditions: affinity matrix / lysate: Kinobeads, mixed HEK293/K-562/placenta lysate
PIP4K2C = PIP4K2C (UniProt Q8TBX8); conditions: affinity matrix / lysate: Kinobeads, mixed HEK293/K-562/placenta lysate
PKN3 = PKN3 (UniProt Q6P5Z2); conditions: affinity matrix / lysate: Kinobeads, mixed HEK293/K-562/placenta lysate
PRKCA = PRKCA (UniProt P17252); conditions: affinity matrix / lysate: Kinobeads, mixed HEK293/K-562/placenta lysate
PRKCZ = PRKCZ (UniProt Q05513); conditions: affinity matrix / lysate: Kinobeads, mixed HEK293/K-562/placenta lysate
RIOK2 = RIOK2 (UniProt Q9BVS4)
Sequence of RIOK2 (Q9BVS4 whole entry, looked up): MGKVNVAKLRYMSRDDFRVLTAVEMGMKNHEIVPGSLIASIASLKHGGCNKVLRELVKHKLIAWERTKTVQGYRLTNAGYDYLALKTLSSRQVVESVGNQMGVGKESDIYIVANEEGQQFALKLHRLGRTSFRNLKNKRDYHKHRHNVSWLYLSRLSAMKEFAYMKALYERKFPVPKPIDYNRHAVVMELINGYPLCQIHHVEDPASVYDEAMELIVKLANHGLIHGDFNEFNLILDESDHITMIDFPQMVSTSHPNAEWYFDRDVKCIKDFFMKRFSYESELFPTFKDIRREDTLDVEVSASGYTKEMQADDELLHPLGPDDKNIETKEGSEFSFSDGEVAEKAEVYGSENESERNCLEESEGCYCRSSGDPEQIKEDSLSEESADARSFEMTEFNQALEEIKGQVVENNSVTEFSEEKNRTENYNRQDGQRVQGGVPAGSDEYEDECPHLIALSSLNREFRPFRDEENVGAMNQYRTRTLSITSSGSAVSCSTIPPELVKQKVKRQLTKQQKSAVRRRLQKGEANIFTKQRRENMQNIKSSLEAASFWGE

RIPK2 = RIPK2 (UniProt O43353); conditions: affinity matrix / lysate: Kinobeads, mixed HEK293/K-562/placenta lysate
STK16 = STK16 (UniProt O75716); conditions: affinity matrix / lysate: Kinobeads, mixed HEK293/K-562/placenta lysate
STK35 = STK35 (UniProt Q8TDR2); conditions: affinity matrix / lysate: Kinobeads, mixed HEK293/K-562/placenta lysate
Sequence of STK35 (Q8TDR2 whole entry): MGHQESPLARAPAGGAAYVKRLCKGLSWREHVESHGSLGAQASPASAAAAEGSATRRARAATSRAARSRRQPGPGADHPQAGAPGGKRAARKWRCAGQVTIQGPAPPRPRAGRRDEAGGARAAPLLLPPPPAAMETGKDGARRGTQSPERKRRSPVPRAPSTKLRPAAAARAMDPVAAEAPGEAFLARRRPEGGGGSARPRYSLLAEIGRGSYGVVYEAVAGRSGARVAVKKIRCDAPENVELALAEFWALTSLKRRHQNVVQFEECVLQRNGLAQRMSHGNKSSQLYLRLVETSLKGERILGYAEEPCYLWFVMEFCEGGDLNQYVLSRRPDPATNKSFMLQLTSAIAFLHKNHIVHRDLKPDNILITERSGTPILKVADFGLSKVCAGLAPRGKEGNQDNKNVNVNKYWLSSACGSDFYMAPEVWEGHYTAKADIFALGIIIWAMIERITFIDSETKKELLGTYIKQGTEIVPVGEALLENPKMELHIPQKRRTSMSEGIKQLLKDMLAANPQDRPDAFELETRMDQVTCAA

TEK = TEK (UniProt Q02763); conditions: affinity matrix / lysate: Kinobeads, mixed HEK293/K-562/placenta lysate
TESK2 = TESK2 (UniProt Q96S53); conditions: affinity matrix / lysate: Kinobeads, mixed HEK293/K-562/placenta lysate
TNK1 = TNK1 (UniProt Q13470); conditions: affinity matrix / lysate: Kinobeads, mixed HEK293/K-562/placenta lysate
Sequence of TNK1 (Q13470 whole entry): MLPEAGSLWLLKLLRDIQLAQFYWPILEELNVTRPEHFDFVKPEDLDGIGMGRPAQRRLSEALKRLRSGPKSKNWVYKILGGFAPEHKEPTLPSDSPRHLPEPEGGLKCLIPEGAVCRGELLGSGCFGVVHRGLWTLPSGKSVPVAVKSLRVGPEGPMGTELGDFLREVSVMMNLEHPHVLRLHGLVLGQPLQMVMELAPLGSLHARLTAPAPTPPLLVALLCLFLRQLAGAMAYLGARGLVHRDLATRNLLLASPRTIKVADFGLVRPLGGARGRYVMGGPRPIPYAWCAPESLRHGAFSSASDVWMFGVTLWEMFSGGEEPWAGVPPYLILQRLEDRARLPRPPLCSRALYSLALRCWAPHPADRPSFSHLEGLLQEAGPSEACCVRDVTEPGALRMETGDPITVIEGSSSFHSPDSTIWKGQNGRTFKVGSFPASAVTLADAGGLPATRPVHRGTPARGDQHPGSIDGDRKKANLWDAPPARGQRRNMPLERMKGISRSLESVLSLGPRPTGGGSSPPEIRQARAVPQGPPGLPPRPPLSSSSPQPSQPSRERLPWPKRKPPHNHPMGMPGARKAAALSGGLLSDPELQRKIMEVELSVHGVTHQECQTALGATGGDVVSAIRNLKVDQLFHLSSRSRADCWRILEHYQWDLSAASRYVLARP

YES1 = YES1 (UniProt P07947); conditions: affinity matrix / lysate: Kinobeads, mixed HEK293/K-562/placenta lysate
Sequence of YES1 (P07947 whole entry, looked up): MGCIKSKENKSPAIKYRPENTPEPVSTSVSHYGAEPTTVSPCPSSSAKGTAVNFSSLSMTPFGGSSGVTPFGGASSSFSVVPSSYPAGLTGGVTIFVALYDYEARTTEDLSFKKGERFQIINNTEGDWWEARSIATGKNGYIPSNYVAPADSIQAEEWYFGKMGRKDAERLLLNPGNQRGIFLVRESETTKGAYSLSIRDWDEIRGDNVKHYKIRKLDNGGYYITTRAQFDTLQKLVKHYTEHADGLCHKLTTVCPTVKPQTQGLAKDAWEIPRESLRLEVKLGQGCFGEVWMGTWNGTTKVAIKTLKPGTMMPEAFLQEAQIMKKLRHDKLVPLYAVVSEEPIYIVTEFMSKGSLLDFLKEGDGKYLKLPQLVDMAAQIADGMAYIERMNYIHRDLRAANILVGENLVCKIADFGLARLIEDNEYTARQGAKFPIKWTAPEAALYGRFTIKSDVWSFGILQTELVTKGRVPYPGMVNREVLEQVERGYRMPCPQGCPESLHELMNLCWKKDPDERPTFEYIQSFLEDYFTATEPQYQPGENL

[1] = affinity matrix / lysate: Kinobeads, mixed HEK293/K-562/placenta lysate
[2] = affinity matrix / lysate: Lipid Kinobeads, mixed HeLa/Jurkat/K-562 lysate

| apparent dissociation constant (-log10 M) (ARAF) | apparent dissociation constant (-log10 M) (BCR) | apparent dissociation constant (-log10 M) (BMP2K) | apparent dissociation constant (-log10 M) (CAMK2B) | apparent dissociation constant (-log10 M) (CDC42BPG) | apparent dissociation constant (-log10 M) (CDK2) | apparent dissociation constant (-log10 M) (EGFR) | apparent dissociation constant (-log10 M) (FLT4) | apparent dissociation constant (-log10 M) (IGF1R) | apparent dissociation constant (-log10 M) (KIAA0999) | apparent dissociation constant (-log10 M) (LIMK1) | apparent dissociation constant (-log10 M) (LRRK2) | apparent dissociation constant (-log10 M) (MAP2K1) | apparent dissociation constant (-log10 M) (MAP3K4) | apparent dissociation constant (-log10 M) (MINK1) | apparent dissociation constant (-log10 M) (MKNK2) | apparent dissociation constant (-log10 M) (NEK2) | apparent dissociation constant (-log10 M) (NEK3) | apparent dissociation constant (-log10 M) (NLK) | apparent dissociation constant (-log10 M) (PFTK1) | apparent dissociation constant (-log10 M) (PHKG2) | apparent dissociation constant (-log10 M) (PIP4K2B) | apparent dissociation constant (-log10 M) (PIP4K2C) | apparent dissociation constant (-log10 M) (PKN3) | apparent dissociation constant (-log10 M) (PRKCA) | apparent dissociation constant (-log10 M) (PRKCZ) | apparent dissociation constant (-log10 M) (RIOK2; [1]) | apparent dissociation constant (-log10 M) (RIOK2; [2]) | apparent dissociation constant (-log10 M) (RIPK2) | apparent dissociation constant (-log10 M) (STK16) | apparent dissociation constant (-log10 M) (STK35) | apparent dissociation constant (-log10 M) (TEK) | apparent dissociation constant (-log10 M) (TESK2) | apparent dissociation constant (-log10 M) (TNK1) | apparent dissociation constant (-log10 M) (YES1) | Structure (SMILES) |
| --- | --- | --- | --- | --- | --- | --- | --- | --- | --- | --- | --- | --- | --- | --- | --- | --- | --- | --- | --- | --- | --- | --- | --- | --- | --- | --- | --- | --- | --- | --- | --- | --- | --- | --- | --- |
| < 6 | < 6 | < 6 | < 6 | < 6 | < 6 | < 6 | < 6 | < 6 | < 6 | < 6 | < 6 | < 6 | < 6 | < 6 | < 6 | < 6 | < 6 | < 6 | < 6 | < 6 | < 6 | < 6 | < 6 | < 6 | < 6 | < 6 | < 6 | < 6 | < 6 | < 6 | < 6 | < 6 | < 6 | < 6 | COc1ccc(-c2ccc3c(N4CCOC[C@@H]4C)nc(N4CCOC[C@@H]4C)nc3n2)cc1CO [AZD8055] |
| < 6 | < 6 | < 6 | < 6 | < 6 | < 6 | < 6 | < 6 | < 6 | < 6 | < 6 | < 6 | < 6 | < 6 | < 6 | < 6 | < 6 | < 6 | < 6 | < 6 | < 6 | < 6 | < 6 | < 6 | < 6 | < 6 | < 6 | < 6 | < 6 | < 6 | < 6 | < 6 | < 6 | < 6 | < 6 | CCNC(=O)Nc1ccc(-c2nc(N3CCOC[C@@H]3C)c3c(n2)C(C)(C)S(=O)(=O)C3)cc1 [CZ415] |

Reference: the supplement of paper PMC6315032
